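Where inhibition never reached the appropriate level, the endpoint shown equals the highest concentration tested. Otherwise, values were interpolated linearly from a five-concentration, 48-hour dose response in 96-well plates. The concentration for 50% growth inhibition is given as GI50.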 Calls of active or inactive are those of the source. No stated cut-off is given here; in the data, active = GI50 up to about 1.1 µM and inactive = higher.
Key:
Assay in all cases: NCI tumour cell line growth inhibition, 48 h
786-0 = system: 786-0
A498 = system: A498
A549 = system: A549
ACHN = system: ACHN
BT-549 = system: BT-549
CAKI-1 = system: CAKI-1
CCRF-CEM = system: CCRF-CEM
COLO 205 = system: COLO 205
DU-145 = system: DU-145
EKVX = system: EKVX
HCC 2998 = system: HCC 2998
HCT-116 = system: HCT-116
HCT-15 = system: HCT-15
HL-60 = system: HL-60
HOP-62 = system: HOP-62
HOP-92 = system: HOP-92
HT-29 = system: HT-29
Hs-578T = system: Hs-578T
IGROV-1 = system: IGROV-1
K562 = system: K562
KM12 = system: KM12
LOX IMVI = system: LOX IMVI
M14 = system: M14
MCF7 = system: MCF7
MDA-MB-231 = system: MDA-MB-231
MDA-MB-435 = system: MDA-MB-435
MOLT-4 = system: MOLT-4
Malme-3M = system: Malme-3M
NCI-H226 = system: NCI-H226
NCI-H23 = system: NCI-H23
NCI-H460 = system: NCI-H460
NCI-H522 = system: NCI-H522
NCI/ADR-RES = system: NCI/ADR-RES
OVCAR-3 = system: OVCAR-3
OVCAR-4 = system: OVCAR-4
OVCAR-5 = system: OVCAR-5
OVCAR-8 = system: OVCAR-8
PC-3 = system: PC-3
RPMI-8226 = system: RPMI-8226
RXF 393 = system: RXF 393
SF-268 = system: SF-268
SF-295 = system: SF-295
SF-539 = system: SF-539
SK-MEL-28 = system: SK-MEL-28
SK-MEL-2 = system: SK-MEL-2
SK-MEL-5 = system: SK-MEL-5
SK-OV-3 = system: SK-OV-3
SN12C = system: SN12C
SNB-19 = system: SNB-19
SNB-75 = system: SNB-75
SR = system: SR
SW-620 = system: SW-620
T47D = system: T47D
TK-10 = system: TK-10
U-251 = system: U-251
UACC-257 = system: UACC-257
UACC-62 = system: UACC-62
UO-31 = system: UO-31

`COc1cc2c(cc1OCCCCCOc1cc3c(cc1OC)C(=O)N1CCC[C@H]1C(=O)N3)N=C[C@@H]1CCCN1C2=O` was tested, and the GI50 (786-0) was 76.2 nM (active), the GI50 (A498) was 218 nM (active) and the GI50 (A549) was 716 nM (active). For the same molecule, the GI50 (ACHN) was 206 nM (active), the GI50 (BT-549) was 75 nM (active) and the GI50 (CAKI-1) was 839 nM (active). For the same molecule, the GI50 (CCRF-CEM) was < 10 nM (active), the GI50 (COLO 205) was 17.7 nM (active) and the GI50 (DU-145) was 780 nM (active). The GI50 (EKVX) was 279 nM (active), the GI50 (HCC 2998) was < 10 nM (active) and the GI50 (HCT-116) was 193 nM (active). For the same molecule, the GI50 (HCT-15) was 3080 nM, the GI50 (HL-60) was 81.7 nM (active) and the GI50 (HOP-62) was 140 nM (active). The GI50 (HOP-92) was 29.9 nM (active), the GI50 (HT-29) was 116 nM (active) and the GI50 (Hs-578T) was 258 nM (active). For the same molecule, the GI50 (IGROV-1) was 132 nM (active), the GI50 (K562) was 45.3 nM (active) and the GI50 (KM12) was 180 nM (active). The GI50 (LOX IMVI) was 27.4 nM (active), the GI50 (M14) was 114 nM (active) and the GI50 (MCF7) was 22.9 nM (active). For the same molecule, the GI50 (MDA-MB-231) was 140 nM (active), the GI50 (MDA-MB-435) was 124 nM (active) and the GI50 (MOLT-4) was < 10 nM (active). For the same molecule, the GI50 (Malme-3M) was 161 nM (active), the GI50 (NCI-H226) was 166 nM (active) and the GI50 (NCI-H23) was 210 nM (active). The GI50 (NCI-H460) was 116 nM (active), the GI50 (NCI-H522) was 11.2 nM (active) and the GI50 (NCI/ADR-RES) was 7800 nM (inactive). The GI50 (OVCAR-3) was 165 nM (active), the GI50 (OVCAR-4) was 198 nM (active) and the GI50 (OVCAR-5) was 957 nM (active). For the same molecule, the GI50 (OVCAR-8) was 225 nM (active), the GI50 (PC-3) was 256 nM (active) and the GI50 (RPMI-8226) was 30.1 nM (active). The GI50 (RXF 393) was 175 nM (active), the GI50 (SF-268) was 32.5 nM (active) and the GI50 (SF-295) was 268 nM (active). The GI50 (SF-539) was 22.4 nM (active), the GI50 (SK-MEL-28) was 174 nM (active) and the GI50 (SK-MEL-2) was 80.9 nM (active). The GI50 (SK-MEL-5) was 100 nM (active), the GI50 (SK-OV-3) was 102 nM (active) and the GI50 (SN12C) was 71.1 nM (active). The GI50 (SNB-19) was 192 nM (active), the GI50 (SNB-75) was < 10 nM (active) and the GI50 (SR) was < 10 nM (active). The GI50 (SW-620) was 87.5 nM (active), the GI50 (T47D) was 33.6 nM (active) and the GI50 (TK-10) was 111 nM (active). The GI50 (U-251) was 22.5 nM (active), the GI50 (UACC-257) was 237 nM (active) and the GI50 (UACC-62) was 73.6 nM (active). The GI50 (UO-31) was 762 nM (active).

— ChEMBL document CHEMBL1201862, “PubChem BioAssay data set” (2004)
